According to PubChem BioAssay AID743394 (Broad Institute, 2014):
Several values for one entry are separate records, joined by “and”; a condition that tells them apart may be missing. Identical values can stand only once. Activity calls are given as the source filed them.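 How the source made its calls: active means 40% activation versus positive control reached by fitted dose-response curve at or below highest valid tested dose; inconclusive means poor fit quality, or flat fit with activation between 30% and 70%; inactive means the rest.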

Tested on: not listed separately
Assay: Xi-linked GFP reactivating small molecules – imaging, 68-5-11 mouse fibroblasts, cherry-pick, dose response (AID 743394);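 further: sensitizer 5-aza-dC present in the wells at 0.5 mM final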
Settings: 68-5-11 mouse fibroblast XiGFP reporter, % GFP-positive imaging, 3 d; at 19.5 µM (top of the series)

Structure (SMILES) | activation
Cc1cc(/C=C2/C(=O)NC(=O)N(Cc3ccco3)C2=O)c(C)n1-c1ccccc1O | -0.049% (inactive)

Same assay, conditions: 68-5-11 mouse fibroblast XiGFP reporter, % GFP-positive imaging, 3 d; at 19.5 µM (top of the series); cells co-treated with 5-aza-dC sensitizer; scaled: neutral wells 0, ellipticine wells 100

Structure (SMILES) | activation
CCCCC(=O)N(C)c1c(CC)nc2c(OCC(=O)c3ccc(F)cc3)cccn12 | -0.039% (inactive)
NC(=S)Nc1ccc(Cl)cc1Cl | -0.001% (inactive)
C[C@@H]1CCCCO[C@H](CN(C)Cc2ccc3c(c2)OCO3)[C@@H](C)CN([C@H](C)CO)C(=O)c2cc(NS(=O)(=O)c3ccc(F)cc3)ccc2O1 | 0.107% (inactive)
Cc1ccc(NC(=O)c2cc(N3C(=O)C=CC3=O)ccc2N2CCOCC2)cc1Cl | -0.024% (inactive)
Nc1ccccc1Nc1cc(-c2ccccc2)[nH]n1 | -0.047% (inactive)
CC(O)CN(CC(C)O)c1ccc2c(c1)Cc1cc([N+](=O)[O-])ccc1-2 (stereo unspecified) | 11.6% (inactive)
O=C(NCCOc1ccccc1)c1cc([N+](=O)[O-])ccc1N1CCOCC1 | 0.193% (inactive)
O=[N+]([O-])/C=C/c1ccc2c(ccn2Cc2ccccc2)c1 | -0.06% (inactive)
Cc1ccc(-c2nc3ccc(Br)cn3c2Cc2ccccc2C(F)(F)F)cc1 | 0.06% (inactive)
COc1ccc(CCn2c(C)cc(C(=O)CN3C(=O)C(=O)N(Cc4ccco4)C3=O)c2C)cc1 | 0.899% (inactive)
Cc1ccc(O)c(N=Nc2ccc(S(=O)(=O)N3CCCC3)cc2)c1 | 0.067% (inactive)
CC(C)(C)[S@@](=O)N1Cc2cc(C(=O)N3CCCCC3)nc(-c3cccc(-c4cccc(C#N)c4)c3)c2[C@H]1CCO | -0.031% (inactive)
CC(C)Oc1ccc(/C(O)=C2/C(=O)C(=O)N(CCN(C)C)C2c2cccs2)cc1 (stereo unspecified) | 0.063% (inactive)
CCC(C(=O)Nc1cc(OC)c(NC(=O)c2ccccc2)cc1OC)c1ccccc1 (stereo unspecified) | -0.037% (inactive)
Cn1c(=O)[nH]c(=O)c2c1nc1n2CCCN1Cc1ccccc1 | 0.106% (inactive)
COC(=O)c1ccc(-n2c(C)cc(C(=O)COC(=O)C3=COCCO3)c2C)cc1 | -0.033% (inactive)
CCOCCCNC(=O)C(c1ccc(C)cc1)N(Cc1cccs1)C(=O)c1ccccn1 (stereo unspecified) | 0.035% (inactive)
C[C@H]1CN([C@@H](C)CO)C(=O)c2ccccc2-c2ccccc2CO[C@H]1CN(C)C(=O)[C@@H](Cc1ccccc1)N(C)C | 0% (inactive)
Cc1cccc(OCC(=O)N(C)c2c(N)n(Cc3ccccc3)c(=O)[nH]c2=O)c1C | 0.012% (inactive)
O=[N+]([O-])c1ccccc1-c1ccc(C(=S)N2CCN(c3ccccc3)CC2)o1 | 0.417% (inactive)
COC(=O)c1c(NC(=O)c2ccccc2)sc2c1CC(C)(C)NC2(C)C | 0.021% (inactive)
CCOC(=O)c1ccc(NC(=O)C2CCC(CNc3c(N4CCOCC4)c(=O)c3=O)CC2)cc1 (stereo unspecified) | 0.016% (inactive)

Structure (SMILES) | activation
Cc1ccc(C)c(CSC2=NN3CCCC(=O)N=C3S2)c1 | -0.017% (inactive)
O=C(O)/C=C/C(=O)Nc1ccc(-n2nccc2C(F)(F)F)cc1 | 1.34% (inactive)
CN(C)CCN(C(=O)c1ccc(S(=O)(=O)N(C)c2ccccc2)cc1)c1nc2cc3c(cc2s1)OCCO3 | -0.008% (inactive)
COc1ccc(N(C)S(=O)(=O)c2cccc(C(=O)NCC(c3cccs3)N(C)C)c2)cc1 (stereo unspecified) | 0.036% (inactive)
CCN(CC)c1ccc(/C=C/C(=O)C2C(=O)C=C(C)OC2=O)cc1 (stereo unspecified) | 3.58% (inactive)
COc1ccc(NC(=O)N(C)[C@H]2C[C@H]3c4[nH]c5ccc(-c6ccc(OC)cc6)cc5c4CCN3C(=O)[C@H]2[C@H](C)O)cc1 | 0.523% (inactive)
COc1cc(/C=C(\C#N)c2nc3ccccc3o2)ccc1O | 1.85% (inactive)
CN1CCN(S(=O)(=O)c2ccc(C#N)cc2)C(c2ccccc2)C1 (stereo unspecified) | 0.227% (inactive)
O=C(COC(=O)c1cc(=O)[nH]c(=O)[nH]1)Nc1cccc(S(=O)(=O)N2CCCCC2)c1 | 0.052% (inactive)
Cc1nnc(SCc2cc(=O)oc3ccc4ccccc4c23)n1Cc1ccccc1 | -0.027% (inactive)
N#Cc1ccccc1Cn1cc(/C=N/Nc2ccc([N+](=O)[O-])cn2)c2ccccc21 | 10.9% (inactive)
NNC(=O)c1sc(-c2ccccc2)cc1N | 0.249% (inactive)
N/C(=N\OC(=O)C12CC3CC(CC(C3)C1)C2)c1ccncc1 | 0.008% (inactive)
CCc1ccc(CCC(=O)Nc2ncc(Cc3ccccc3Cl)s2)o1 | 0.223% (inactive)
CCOCCCn1c(=NC(C)=O)c(C#N)cc2c(=O)n3cccc(C)c3nc21 | 0.035% (inactive)
NC(=O)c1sc2nc3c(cc2c1N)CCCCCC3 | 0.065% (inactive)
O=C(N/N=C/c1ccc(Br)s1)c1ccc([N+](=O)[O-])cc1 | 1.59% (inactive)
CCCCOc1nc2ccccc2nc1NS(=O)(=O)c1ccc(F)cc1 | 0.851% (inactive)
O=C1N[C@H](Cc2ccccc2)COCc2cn(nn2)CC[C@@H]1Cc1ccccc1 | 0.033% (inactive)
C[C@H](CO)N1C[C@H](C)[C@H](CN(C)Cc2ccccc2)Oc2ccc(NS(C)(=O)=O)cc2C1=O | -0.035% (inactive)
COc1ccccc1NC(=S)N(CCCN1CCOCC1)Cc1cccs1 | -0.076% (inactive)
COc1ccccc1/C=C/C(=O)OCCCN(C)C | 0.018% (inactive)

Same assay, conditions: 68-5-11 mouse fibroblast XiGFP reporter, % GFP-positive imaging, 3 d; at 21 µM (top of the series); cells co-treated with 5-aza-dC sensitizer; scaled: neutral wells 0, ellipticine wells 100

Structure (SMILES) | activation
Cc1noc(C)c1NC(=O)N(C)C[C@@H]1Oc2ccc(NC(=O)C3CC3)cc2CC(=O)N([C@@H](C)CO)C[C@@H]1C | -0.023% (inactive)

Tested on: 68-5-11 mouse fibroblast XiGFP reporter, % GFP-positive imaging, 3 d
Assay: as above
Settings: cells co-treated with 5-aza-dC sensitizer

Structure (SMILES) | AC40
O=[N+]([O-])c1ccc(N/N=C/c2ccc[nH]2)cc1 | > 19.5 µM (inactive)
CCN1/C(=C\c2ccc3ccccc3[n+]2CC)Sc2cc(C)ccc21 | 0.668 µM
CCOC(=O)/C(=C/C=C1\Sc2cc(C)c(C)cc2N1CC)C(C)=O | 16.9 µM
CCN1/C(=C/C=C/c2oc3ccc(-c4ccccc4)cc3[n+]2CC)Oc2ccc(-c3ccccc3)cc21 | 0.00228 µM
CC[n+]1c(/C=C/C=C/N(C(C)=O)c2ccccc2)sc2cc(OC)ccc21 | 1.16 µM
COc1cc2c3nnc(-c4ccc(F)cc4)c-3cn(Cc3cccc(C)c3)c2cc1OC | 3.74 µM
Nc1c(Br)cc2c3c(cccc13)-c1ccccc1-2 | 12.6 µM
CC(=O)Oc1cccc(N2C(=O)c3cccc4c([N+](=O)[O-])ccc(c34)C2=O)c1 | 5.28 µM
COc1ccc(Cn2cc3c(-c4ccc(F)cc4)nnc-3c3cc(OC)c(OC)cc32)cc1 | 4.05 µM
N#C/C(=C/c1ccc(N2CCCCC2)o1)C(=O)NCCc1c[nH]c2ccccc12 | 4.77 µM
Cc1cc(N/N=C/c2ccc([N+](=O)[O-])o2)nc2ccccc12 | 8.4 µM
Cc1cccc(-c2cccc3[nH]c4c(c23)CCN2C(=O)[C@H]3[C@H](C)ON(C)[C@H]3C[C@@H]42)c1 | 10.8 µM
Cc1ccc(NC(=O)/C=C/c2ccc([N+](=O)[O-])s2)cc1 | 3.11 µM
N#CC(C#N)=C1C=C2C=C(N3CCCCCC3)CCC2CC1 (stereo unspecified) | 4 µM
CCN(CC)c1ccc(/C=C/c2cc(-c3ccccc3)c3ccccc3n2)cc1 | 1.68 µM
CC(C)CCN1C(=O)c2cccc3c(N)ccc(c23)C1=O | 7.46 µM
N#Cc1c(-c2ccccc2F)cc(C2CC2)nc1SCC(=O)c1cccs1 | 7.48 µM
CCCN1C(=O)S/C(=C\c2ccc(N3CCOCC3)o2)C1=O | > 19.5 µM (inactive)
Cc1cccc2cc3c(N)c(C(=O)N4CCCc5ccccc54)sc3nc12 | 9.89 µM
COc1cc(/C=C/C(=O)c2ccc([N+](=O)[O-])o2)ccc1O | 10.3 µM
Cc1ccc2cc3c(N)c(C(=O)Nc4c(C)[nH]c(=O)[nH]c4=O)sc3nc2c1 | 13.2 µM
Nc1c(C(=O)Nc2ccc(S(=O)(=O)N3CCCC3)cc2)sc2nc3cc4c(cc3cc12)CCC4 | 4.29 µM
COc1cc2c3nnc(-c4ccccc4)c-3cn(Cc3ccccc3F)c2cc1OC | 1.27 µM

Structure (SMILES) | AC40
CCN1/C(=C/c2ccc3cc(C)cc(C)c3[n+]2CC)Sc2cc(C)ccc21 | 0.507 µM
Cc1cc2oc3ccc(NCCCn4ccnc4)cc3c(=O)c2cc1C | 11.3 µM
CCN(CC)c1ccc2cc(-c3nc(-c4ccc(OC)cc4)cs3)c(=O)oc2c1 | 0.057 µM
N#C/C(=C\c1ccc(N2CCCCC2)o1)C(=O)Nc1cccc(Br)c1 | 0.406 µM
CN(C)CCCN1C(=O)c2cccc3c([N+](=O)[O-])ccc(c23)C1=O | 6.06 µM
C[n+]1c2cc(N)ccc2cc2ccc(N)cc21 | 0.297 µM and 0.116 µM
CCOC(=O)Cn1c(=NC(=O)c2ccc([N+](=O)[O-])s2)sc2ccccc21 | 7.3 µM
CC(=O)c1ccc(C(=O)Nc2sc3c(c2C(N)=O)CCN(Cc2ccccc2)C3)cc1 | > 19.5 µM (inactive)
COC(=O)C1=C(C)NC(C)=C(C(=O)OC)C1C(=O)OCC(=O)c1ccc(F)cc1 | 15.3 µM
Cc1[nH]c2ccccc2c1/C=N/Nc1ccc([N+](=O)[O-])cc1 | 9.23 µM
CCc1cccc2cc3c(N)c(C(=O)Nc4ccc(S(=O)(=O)N5CCCC5)cc4)sc3nc12 | 4.01 µM
O=[N+]([O-])c1ccc(/C=N/NC(=S)Nc2ccc(Cl)cc2Cl)s1 | > 19.5 µM (inactive)
CC1=NN(c2nc(N)nc(/C(C#N)=C/c3ccc([N+](=O)[O-])o3)n2)C(C)(C)C1 | 2.18 µM
O=S(=O)(Nc1cc(Sc2cccc3cccnc23)c(O)c2ccccc12)c1ccccc1 | > 19.5 µM (inactive)
Cc1ccc(NC(=O)/C=C/c2ccc([N+](=O)[O-])s2)c(C)c1 | 1.68 µM
Cc1ccc(S(=O)(=O)N2CC3(O)CN(C(=O)OC(C)C)N(C(=O)OC(C)C)CC3(OC(=O)NCc3ccccc3)C2)cc1 (stereo unspecified) | 13.8 µM
CC(C)(C)NC(=S)N/N=C\c1ccc(-c2ccc([N+](=O)[O-])cc2)o1 | 5.94 µM
N#C/C(=C/c1ccc(N2CCCCC2)o1)C(=O)Nc1ccc2ccccc2c1 | 0.297 µM
Cc1ccc2[nH]c(C)c(/C=C/c3cc[n+](C)cc3)c2c1 | 8.58 µM
CCN1/C(=C\c2ccc3cc(C)ccc3[n+]2CC)Sc2cc(C)c(C)cc21 | 5.57 µM
COc1ccccc1N1N=C(c2ccc([N+](=O)[O-])cc2)CC1c1ccccc1 (stereo unspecified) | 18.4 µM
CN1/C(=C/C=C(C#N)C#N)C(C)(C)c2ccccc21 | 11.3 µM
